Laboratory results taken from US20090318430A1, “MEDICAL USE OF CYCLIN DEPENDENT KINASES INHIBITORS” (ASTEX THERAPEUTICS LIMITED, priority 2006, published 2009).
Counter-ions that a name gives are not always drawn.

Assays:
[1] = molecular target: T1, Cdk5/p35 enzyme (Upstate) (Homo sapiens, UniProt Q00535); assay: Alternative CDK5 assay (DELFIA, biotinylated histone H1 peptide); assay type: biochemical; conditions: Cdk5/p35, ATP, 30 minutes at room temperature, TRF read-out
T1 construct: purchased Upstate
T1 sequence (Q00535 whole entry): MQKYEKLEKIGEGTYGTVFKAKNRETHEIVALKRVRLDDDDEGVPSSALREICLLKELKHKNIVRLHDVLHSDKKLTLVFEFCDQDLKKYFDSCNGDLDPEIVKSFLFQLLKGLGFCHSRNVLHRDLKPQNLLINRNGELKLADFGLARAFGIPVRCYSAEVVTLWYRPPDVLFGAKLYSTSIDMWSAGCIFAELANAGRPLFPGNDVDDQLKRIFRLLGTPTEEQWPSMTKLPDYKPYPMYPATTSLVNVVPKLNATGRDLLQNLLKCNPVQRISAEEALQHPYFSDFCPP
T1 sequence (Q15078 whole entry partner): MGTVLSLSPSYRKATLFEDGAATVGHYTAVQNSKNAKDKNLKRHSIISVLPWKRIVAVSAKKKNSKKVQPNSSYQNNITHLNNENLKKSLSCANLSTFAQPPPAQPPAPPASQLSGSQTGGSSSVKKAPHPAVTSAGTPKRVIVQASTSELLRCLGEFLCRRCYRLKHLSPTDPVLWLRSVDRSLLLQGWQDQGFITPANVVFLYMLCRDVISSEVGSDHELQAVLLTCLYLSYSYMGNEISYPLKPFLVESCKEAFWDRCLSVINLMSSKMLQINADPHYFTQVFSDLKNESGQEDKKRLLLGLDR
Procedure: In a 96-well polypropylene plate add 5 μl of 5× test compound (in 12.5% DMSO) per well. Prepare an assay mix of 2.5 μM biotinylated histone H1 peptide (Bachem), 2.5 mM DTT in 1× assay buffer (10× assay buffer contains 250 mM Tris-HCl pH7.5, 2.5 mM MgCl2, 0.025 Brij-35, 0.1 mg/ml BSA. Add 10 μl of assay mix per well. Prepare the Cdk5/p35 enzyme (Upstate) at 0.625 nM in 1× assay buffer with 37.5 μM ATP on ice. Add 10 μl per well to start the reaction, seal with sealing film and incubate for 30 minutes at room temperature on a plate shaker. Stop the reaction by the addition of 100 μl stop buffer (1× Blocker BSA-Pierce, 0.05% surfact-AMPS-20, 100 mM EDTA). Shake plate for 1 minute. Transfer 100 μl of the stopped reaction to a black Neutravidin coated plate. Shake at room temperature for 30 minutes. Wash plate 5× with 200 μl TBS-Tween. Add 100 μl of anti-phospho cdk1-substrate antibody (Calbiochem) at 1:1500 in 1×DELFIA assay buffer (Perkin Elmer) to each well. Shake for 1 hour at room temperature. Wash plate 5× with 200 μl TBS-Tween. Add 100 μl of Eu-labelled anti-rabbit IgG at 1:300 in 1×DELFIA assay buffer per well. Shake for 1 hour at room temperature. Wash plate 5× with 200 μl TBS-Tween. Add 100 μl DELFIA enhancement solution (Perkin Elmer) per well and incubate 5 minutes on a plate shaker at <900 rpm. Read using TRF enabled fluorimeter at 335ex/620em.

[2] = Vapour sorption/desorption analysis; assay type: physicochemical
Procedure: Crystals of 4-(2,6-dichlorobenzoylamino)-1H-pyrazole-3-carboxylic acid (1-methanesulphonyl-piperidin-4-yl)-amide prepared by the recrystallisation method of Example 11 Step 8 were subjected to vapour sorption/desorption analysis in order to test for the propensity of this sample to form a hydrated state.
Approximately 20 mg of sample was placed into a wire-mesh vapour sorption balance pan and loaded into an ‘IgaSorp’ vapour sorption balance (Hiden Analytical Instruments) held at 25+/−0.1° C. The sample was then dried by maintaining a 0% humidity environment (using mass flow control apparatus) until no further weight change was recorded. Subsequently, the sample was then subjected to a ramping profile from 0-90% relative humidity (% RH) at 10% RH increments, maintaining the sample at each step until equilibration had been attained (99.5% step completion).
Upon reaching equilibration, the % RH within the apparatus was ramped to the next step and the equilibration procedure repeated. After completion of the sorption cycle, the sample was then dried using the same procedure. The weight change during the sorption/desorption cycles was then monitored, allowing for the hygroscopic nature of the sample to be determined.

[3] = system: rat model of focal cerebral ischemia; conditions: cited from earlier work
[4] = Solubility of the acid addition salt; assay type: physicochemical
[5] = system: formalin-induced nociceptive responses in rats; conditions: cited from earlier work
[6] = system: jck and cpk mouse models of PKD; conditions: cited from earlier work
[7] = system: polycystic cpk mice; conditions: cited from earlier work

## CS(=O)(=O)N1CCC(NC(=O)c2n[nH]cc2NC(=O)c2c(Cl)cccc2Cl)CC1 [Example 12, 4-(2,6-dichloro-benzoylamino)-1H-pyrazole-3-carboxylic acid (1-methanesulphonyl-piperidin-4-yl)-amide]
[1]
  IC50: < 100 nM
[2]; crystals, 25 °C, stepwise 0-90% relative humidity
  weight increase upon equilibration at 90% RH: 0.24%
[2]; storage in elevated humidity conditions
  hygroscopicity / hydrate formation: physically stable with regard to hygroscopicity

## CN1CC[C@H](c2c(O)cc(O)c3c(=O)cc(-c4ccccc4Cl)oc23)[C@H](O)C1 [flavopiridol]
[3]
  neuronal death: significantly reduce neuronal death

## O=C(NC1CCNCC1)c1n[nH]cc1NC(=O)c1c(Cl)cccc1Cl [methanesulphonic acid salt, 4-(2,6-dichlorobenzoylamino)-1H-pyrazole-3-carboxylic acid piperidin-4-ylamide methanesulphonate]
[4]; pH 4.6, aqueous buffer, buffer formed from acetic acid and sodium acetate, solution pH approximately 4.6
  solubility: ~35 mg/mL
[4]; water, qualitative statement
  water solubility: excellent water solubility

## CC[C@H](CO)Nc1nc(NCc2ccccc2)c2ncn(C(C)C)c2n1 [roscovitine]
[5]
  formalin-induced nociceptive responses: attenuate the formalin-induced nociceptive responses
[6]
  cystic disease: effective arrest of cystic disease

## CC(=O)O[C@H]1C(=O)[C@@]2(C)[C@H]([C@H](OC(=O)c3ccccc3)[C@]3(O)C[C@H](OC(=O)[C@H](O)[C@@H](NC(=O)c4ccccc4)c4ccccc4)C(C)=C1C3(C)C)[C@]1(OC(C)=O)CO[C@@H]1C[C@@H]2O [taxol]
[7]
  progression of PKD and survival: inhibit the progression of PKD and prolongs the survival
